# Test results: PMC5129993, “Everolimus induces Met inactivation by disrupting the FKBP12/Met complex” (Oncotarget, 2016)
# Key:
# [1] = system: phospho-p70S6K; experiment: Western blot analysis of p70S6K phosphorylation in human cancer cell lines; assay type: cell-based; conditions: 24 hours; for phospho-p70S6K: 786-O and MDA-MB-231 cells; for phosphorylation of p70S6K: 786-O EveR and HCT116 cells, 1 μM (siRNA 50 nM)
# Protocol: (§1) Total protein extracts obtained from cell cultures or tumor specimens were resolved by 4-15% SDS-PAGE and probed with anti-human, polyclonal pMet Y1349, polyclonal Met, monoclonal pp70S6K T412 and p70S6K (Merck-Millipore Darmstadt, Germany), monoclonal actin (Sigma-Aldrich, Milan, Italy), monoclonal FKBP12, polyclonal mTOR, Raptor, and Rictor. Co-immunoprecipitation analyses were performed with anti-Met; membranes were blotted with anti-FKBP12. The total lysate from 786-O, 786-O EveR and HCT116 cells served as positive control. Immunoreactive proteins were visualized by enhanced chemiluminescence (Pierce, Rockford, IL, USA). Densitometry was performed with Image J software (NIH, Bethesda, MD, USA).
# [2] = system: phospho-Met; experiment: Western blot analysis of Met phosphorylation in human cancer cell lines; assay type: cell-based; conditions: 24 hours; for Met phosphorylation: 0.5 μM; for phosphorylation of Met: 786-O EveR and HCT116 cells, 1 μM (siRNA 50 nM)
# Protocol: as §1
# [3] = system: T47D cells with Met Y1235D mutant; experiment: Cell density assay (MTT), Met-transduced T47D; assay type: cell-based, human
# Protocol: (§2) The percentage of cell density was determined using the 3-(4,5-dimethylthiazol-2-yl)-2,5-diphenyltetrazolium bromide (MTT) assay according to the manufacturer's instructions (Sigma-Aldrich, Milan, Italy). […]
# (§3) (iii) an active conformation. The resulting selected Met [Follenzi A, Nat Genet. 2000]. […]
# (§4) We used the pRRL.sin.PPT.hCMV.GFP.
# (§5) Cα] at the 80 loop level (frame 13). To generate the Met/pre vector as control. […]
# [4] = system: T47D cells with wt Met; experiment: Cell density assay (MTT), Met-transduced T47D; assay type: cell-based, human
# Protocol: as §2, §3, §4, §5
# [5] = system: T47D cells with Met M1268T mutant; experiment: Cell density assay (MTT), Met-transduced T47D; assay type: cell-based, human
# Protocol: as §2, §3, §4, §5
# [6] = system: everolimus-resistant HCT116 cells; experiment: Orthotopic murine colorectal cancer model (HCT116 in cecum); assay type: in vivo, Balb/C nude mice; conditions: orthotopic HCT116, four weeks after tumor implantation
# Protocol: The cecum was then placed
# Seven days after implantation, […]
# p/6 x larger diameter x (smaller diameter)2. […]
# diameter was assessed with ultrasonography (VEVO,
# Committee. Primary tumors in the cecum were excised
# The final tumor was measured with a caliper surgical site was isolated in a sterile fashion.
# J Am Chem Soc. 2003; 125: 8827-8837.
# Uncoupling signal transducers from oncogenic MET 6.
# 2. […] 2000; 25: 217-222.
# Unbinding pathways from the glucocorticoid receptor shed 7. Michnick SW, Rosen MK, Wandless TJ, Karplus M, […]
# Solution structure of FKBP, a rotamase a naturally occurring, clinically relevant mutant receptor. J enzyme and receptor for FK506 and rapamycin. Science.
# 3. […] Mustafi SM, LeMaster DM, Hernández G. Differential […]
# cytoreductive antitumor activity in vivo.
# HADDOCK2.0 on the CAPRI targets. Proteins.
# 726-733. JR, Soisson SM, Lumb KJ. Structural basis for selective
# [7] = system: everolimus-resistant HCT116 cells; experiment: Subcutaneous murine colorectal cancer model (HCT116 xenograft); conditions: for Median survival: subcutaneous HCT116 xenograft, 10 mice/group
# Excerpt: We subcutaneously xenografted everolimus-resistant HCT116 cells into 50 four- to six-week-old female BALB/c athymic nu+/nu+ (nude) mice (Charles River Laboratories, Milan, Italy). Forty animals were used to carry out the subcutaneous colorectal cancer model experiment; when tumors reached a mean volume of 1 cm^3, 10 animals were euthanized, tumors were divided into 2-mm-sized pieces and microsurgically implanted in the cecum of 40 Balb/C nude mice for the orthotopic experiment. See Supplementary Methods for further details about the surgical procedure and the treatment schedule. […]
# [8] = target: T1, FKBP12/Met complex (Homo sapiens, UniProt P62942); experiment: Co-immunoprecipitation of FKBP12 with anti-Met antibody; assay type: cell-based; conditions: 0.5 μM, 24 hours
# T1 construct: immunoprecipitated total cell lysates from everolimus-treated and -untreated 786-O cells; endogenous in cells; host or cells: 786-O (also 786-O EveR and HCT116)
# T1 sequence (P62942 2-108 limits assumed, one chain of several): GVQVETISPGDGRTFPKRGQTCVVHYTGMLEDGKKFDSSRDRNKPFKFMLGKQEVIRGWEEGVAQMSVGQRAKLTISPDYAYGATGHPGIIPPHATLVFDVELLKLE
# Protocol: as §1
# [9] = target: T2, Met Y1230D (Homo sapiens, UniProt P08581, Y1230D); experiment: In vitro Met kinase inhibition assay (ProQinase, radiometric 33PanQinase); assay type: biochemical
# T2 construct: purchased ProQinase GmbH (screening service)
# Protocol: (§6) In vitro Met kinase inhibition assay equilibrated using NAMD2.8 [Phillips JC, J Comput Chem.
# (§7) The Met kinase inhibition by everolimus was analyzed 2005], and the final MD simulation was conducted applying […]
# (§8) ProQinase (ProQinase GmbH, Freiburg, Germany). Briefly, J Med Chem. 2013].
# (§9) -10 - trajectories. The complex was aligned on the Cα atoms of different concentrations (standard range: 3x10M–1x10 Met, while the backbone atoms Root-mean-square deviation 5M; semilog dilutions) against human recombinant wt
# (§10) Met and nine Met mutant protein kinases, and IC values (RMSD) of FKBP12 was measured and used to cluster the 50 trajectories. The cluster analysis was performed using ptraj […]
# (§11) All assays were Å. Finally, the representative structure of the most populated performed at the corresponding apparent ATP Km of each cluster was choosen as the final Met/FKBP12 complex. […]
# [10] = target: T3, Met Y1230A (Homo sapiens, UniProt P08581, Y1230A); experiment: as above; assay type: biochemical
# T3 construct: purchased ProQinase GmbH (screening service)
# T3 sequence (P08581 25-1390 Y1230A): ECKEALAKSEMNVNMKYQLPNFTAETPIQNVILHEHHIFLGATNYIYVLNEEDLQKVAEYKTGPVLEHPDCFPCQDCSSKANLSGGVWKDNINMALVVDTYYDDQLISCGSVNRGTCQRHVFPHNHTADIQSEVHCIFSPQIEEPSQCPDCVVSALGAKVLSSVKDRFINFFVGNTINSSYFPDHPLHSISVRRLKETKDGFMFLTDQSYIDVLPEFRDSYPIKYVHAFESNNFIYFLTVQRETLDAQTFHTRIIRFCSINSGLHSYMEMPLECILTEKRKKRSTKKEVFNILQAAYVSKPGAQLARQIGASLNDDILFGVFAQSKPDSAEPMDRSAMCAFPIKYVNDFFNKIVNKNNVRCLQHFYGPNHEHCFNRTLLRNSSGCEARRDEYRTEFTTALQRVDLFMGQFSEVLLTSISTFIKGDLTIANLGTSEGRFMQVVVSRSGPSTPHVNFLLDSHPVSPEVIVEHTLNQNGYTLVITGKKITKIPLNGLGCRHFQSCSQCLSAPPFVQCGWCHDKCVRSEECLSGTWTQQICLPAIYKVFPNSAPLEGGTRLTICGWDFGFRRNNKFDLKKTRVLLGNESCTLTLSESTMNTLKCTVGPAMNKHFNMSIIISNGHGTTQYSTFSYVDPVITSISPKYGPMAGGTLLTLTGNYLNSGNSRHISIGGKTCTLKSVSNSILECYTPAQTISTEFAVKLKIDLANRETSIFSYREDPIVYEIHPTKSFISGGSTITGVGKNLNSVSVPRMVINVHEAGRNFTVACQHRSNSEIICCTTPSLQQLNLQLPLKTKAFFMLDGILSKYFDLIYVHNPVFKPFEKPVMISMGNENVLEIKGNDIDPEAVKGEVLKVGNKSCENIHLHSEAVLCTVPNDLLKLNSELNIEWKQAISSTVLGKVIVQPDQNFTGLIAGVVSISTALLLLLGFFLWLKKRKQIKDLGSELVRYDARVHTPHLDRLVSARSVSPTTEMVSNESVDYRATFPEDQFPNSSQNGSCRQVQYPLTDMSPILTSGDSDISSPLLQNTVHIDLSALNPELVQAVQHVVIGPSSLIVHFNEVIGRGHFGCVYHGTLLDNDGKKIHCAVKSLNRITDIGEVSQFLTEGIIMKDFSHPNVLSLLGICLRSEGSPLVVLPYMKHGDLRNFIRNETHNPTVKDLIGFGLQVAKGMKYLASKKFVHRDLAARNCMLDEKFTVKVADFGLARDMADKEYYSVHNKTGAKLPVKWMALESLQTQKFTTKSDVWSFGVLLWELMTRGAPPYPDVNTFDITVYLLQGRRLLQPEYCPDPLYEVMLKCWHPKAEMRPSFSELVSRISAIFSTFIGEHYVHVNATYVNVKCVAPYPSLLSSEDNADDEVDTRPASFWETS
# Protocol: as §6, §7, §8, §9, §10, §11
# [11] = target: T4, Met F1200I (Homo sapiens, UniProt P08581, F1200I); experiment: as above; assay type: biochemical
# T4 construct: purchased ProQinase GmbH (screening service)
# Protocol: as §6, §7, §8, §9, §10, §11
# [12] = target: T5, Met M1250T (Homo sapiens, UniProt P08581, M1250T); experiment: as above; assay type: biochemical
# T5 construct: purchased ProQinase GmbH (screening service)
# T5 sequence (P08581 25-1390 M1250T): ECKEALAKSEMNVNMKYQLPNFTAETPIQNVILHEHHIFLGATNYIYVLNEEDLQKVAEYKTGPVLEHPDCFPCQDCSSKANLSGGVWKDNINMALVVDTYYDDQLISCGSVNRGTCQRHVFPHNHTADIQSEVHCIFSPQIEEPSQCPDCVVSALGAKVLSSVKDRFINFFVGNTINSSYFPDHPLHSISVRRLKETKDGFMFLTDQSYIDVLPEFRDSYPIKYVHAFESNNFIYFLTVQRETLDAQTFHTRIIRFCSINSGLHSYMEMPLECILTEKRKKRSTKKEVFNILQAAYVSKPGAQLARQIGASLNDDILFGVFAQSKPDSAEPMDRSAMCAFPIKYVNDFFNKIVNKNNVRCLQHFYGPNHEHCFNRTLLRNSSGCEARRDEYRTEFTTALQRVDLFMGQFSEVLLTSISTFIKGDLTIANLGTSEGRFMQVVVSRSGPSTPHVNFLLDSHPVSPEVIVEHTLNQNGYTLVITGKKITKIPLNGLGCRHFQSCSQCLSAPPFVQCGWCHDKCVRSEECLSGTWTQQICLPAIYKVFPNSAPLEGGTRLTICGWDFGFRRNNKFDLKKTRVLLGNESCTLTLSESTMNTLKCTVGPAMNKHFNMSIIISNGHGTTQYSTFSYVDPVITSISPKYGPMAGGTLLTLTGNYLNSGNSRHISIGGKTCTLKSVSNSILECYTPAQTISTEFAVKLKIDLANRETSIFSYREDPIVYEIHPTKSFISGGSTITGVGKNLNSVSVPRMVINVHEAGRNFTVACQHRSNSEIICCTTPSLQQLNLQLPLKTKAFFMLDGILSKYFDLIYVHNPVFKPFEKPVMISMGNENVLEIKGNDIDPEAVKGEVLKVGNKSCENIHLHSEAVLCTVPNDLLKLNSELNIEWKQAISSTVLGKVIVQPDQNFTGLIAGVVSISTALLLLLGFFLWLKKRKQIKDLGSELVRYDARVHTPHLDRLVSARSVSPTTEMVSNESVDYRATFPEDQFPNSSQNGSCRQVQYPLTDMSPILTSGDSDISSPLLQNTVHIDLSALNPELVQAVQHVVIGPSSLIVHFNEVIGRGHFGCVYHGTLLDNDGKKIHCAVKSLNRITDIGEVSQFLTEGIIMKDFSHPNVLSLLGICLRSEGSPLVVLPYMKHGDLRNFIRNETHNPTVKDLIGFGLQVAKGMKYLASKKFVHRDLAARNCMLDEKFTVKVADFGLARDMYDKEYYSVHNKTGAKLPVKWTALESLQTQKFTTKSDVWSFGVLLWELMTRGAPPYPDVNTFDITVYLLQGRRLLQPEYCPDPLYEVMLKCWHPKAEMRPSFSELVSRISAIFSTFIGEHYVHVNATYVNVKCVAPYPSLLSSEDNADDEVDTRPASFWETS
# Protocol: as §6, §7, §8, §9, §10, §11
# [13] = target: T6, Met D1228H (Homo sapiens, UniProt P08581, D1228H); experiment: as above; assay type: biochemical
# T6 construct: purchased ProQinase GmbH (screening service)
# Protocol: as §6, §7, §8, §9, §10, §11
# [14] = target: T7, Met Y1230H (Homo sapiens, UniProt P08581, Y1230H); experiment: as above; assay type: biochemical
# T7 construct: purchased ProQinase GmbH (screening service)
# Protocol: as §6, §7, §8, §9, §10, §11
# [15] = system: 786-O EveR (everolimus-resistant) cells; experiment: Cell density assay (MTT); assay type: cell-based; conditions: Homo sapiens, 786-0, data not shown, read-out: concentration causing 50% reduction of cell density
# Protocol: as §2
# [16] = system: 786-O cells; experiment: Cell density assay (MTT); assay type: cell-based; conditions: Homo sapiens, 786-0, 72 hours, read-out: concentration causing 50% reduction of cell density
# Protocol: (§12) The percentage of cell density was determined using the 3-(4,5-dimethylthiazol-2-yl)-2,5-diphenyltetrazolium bromide (MTT) assay according to the manufacturer's instructions (Sigma-Aldrich, Milan, Italy).
# [17] = system: NCI-H1975 cells; experiment: Cell density assay (MTT); assay type: cell-based; conditions: Homo sapiens, NCI-H1975, 72 hours, read-out: concentration causing 50% reduction of cell density
# Protocol: as §12
# [18] = system: MDA-MB-361 cells; experiment: Cell density assay (MTT); assay type: cell-based; conditions: Homo sapiens, MDA-MB-361, 72 hours, read-out: concentration causing 50% reduction of cell density
# Protocol: as §12
# [19] = system: HCT116 cells; experiment: Cell density assay (MTT); assay type: cell-based; conditions: Homo sapiens, HCT-116; HCT116, data not shown; read-out: concentration causing 50% reduction of cell density
# Protocol: as §12
# [20] = system: PC-9 cells; experiment: Cell density assay (MTT); assay type: cell-based; conditions: Homo sapiens, PC-9, 72 hours, read-out: concentration causing 50% reduction of cell density
# Protocol: as §12
# [21] = system: ACHN cells; experiment: Cell density assay (MTT); assay type: cell-based; conditions: Homo sapiens, 72 hours, read-out: concentration causing 50% reduction of cell density
# Protocol: as §12
# [22] = system: MDA-MB-231 cells; experiment: Cell density assay (MTT); assay type: cell-based; conditions: Homo sapiens, MDA-MB-231, 72 hours, read-out: concentration causing 50% reduction of cell density
# Protocol: as §12
# [23] = target: T8, Met D1228N (Homo sapiens, UniProt P08581, D1228N); experiment: In vitro Met kinase inhibition assay (ProQinase, radiometric 33PanQinase); assay type: biochemical
# T8 construct: purchased ProQinase GmbH (screening service)
# Protocol: as §6, §7, §8
# (§13) -10 - trajectories. The complex was aligned on the Cα atoms of different concentrations (standard range: 3x10M–1x10 Met, while the backbone atoms Root-mean-square deviation 5M; semilog dilutions) against human recombinant wt […]
# as §11
# [24] = target: T9, Met Wild-type (Homo sapiens, UniProt P08581); experiment: as above; assay type: biochemical; conditions: Met TK Wild-type; 0.3 nM to 10 μM, singlicate; apparent ATP Km
# T9 construct: purchased ProQinase GmbH (screening service)
# T9 sequence (P08581 25-1390): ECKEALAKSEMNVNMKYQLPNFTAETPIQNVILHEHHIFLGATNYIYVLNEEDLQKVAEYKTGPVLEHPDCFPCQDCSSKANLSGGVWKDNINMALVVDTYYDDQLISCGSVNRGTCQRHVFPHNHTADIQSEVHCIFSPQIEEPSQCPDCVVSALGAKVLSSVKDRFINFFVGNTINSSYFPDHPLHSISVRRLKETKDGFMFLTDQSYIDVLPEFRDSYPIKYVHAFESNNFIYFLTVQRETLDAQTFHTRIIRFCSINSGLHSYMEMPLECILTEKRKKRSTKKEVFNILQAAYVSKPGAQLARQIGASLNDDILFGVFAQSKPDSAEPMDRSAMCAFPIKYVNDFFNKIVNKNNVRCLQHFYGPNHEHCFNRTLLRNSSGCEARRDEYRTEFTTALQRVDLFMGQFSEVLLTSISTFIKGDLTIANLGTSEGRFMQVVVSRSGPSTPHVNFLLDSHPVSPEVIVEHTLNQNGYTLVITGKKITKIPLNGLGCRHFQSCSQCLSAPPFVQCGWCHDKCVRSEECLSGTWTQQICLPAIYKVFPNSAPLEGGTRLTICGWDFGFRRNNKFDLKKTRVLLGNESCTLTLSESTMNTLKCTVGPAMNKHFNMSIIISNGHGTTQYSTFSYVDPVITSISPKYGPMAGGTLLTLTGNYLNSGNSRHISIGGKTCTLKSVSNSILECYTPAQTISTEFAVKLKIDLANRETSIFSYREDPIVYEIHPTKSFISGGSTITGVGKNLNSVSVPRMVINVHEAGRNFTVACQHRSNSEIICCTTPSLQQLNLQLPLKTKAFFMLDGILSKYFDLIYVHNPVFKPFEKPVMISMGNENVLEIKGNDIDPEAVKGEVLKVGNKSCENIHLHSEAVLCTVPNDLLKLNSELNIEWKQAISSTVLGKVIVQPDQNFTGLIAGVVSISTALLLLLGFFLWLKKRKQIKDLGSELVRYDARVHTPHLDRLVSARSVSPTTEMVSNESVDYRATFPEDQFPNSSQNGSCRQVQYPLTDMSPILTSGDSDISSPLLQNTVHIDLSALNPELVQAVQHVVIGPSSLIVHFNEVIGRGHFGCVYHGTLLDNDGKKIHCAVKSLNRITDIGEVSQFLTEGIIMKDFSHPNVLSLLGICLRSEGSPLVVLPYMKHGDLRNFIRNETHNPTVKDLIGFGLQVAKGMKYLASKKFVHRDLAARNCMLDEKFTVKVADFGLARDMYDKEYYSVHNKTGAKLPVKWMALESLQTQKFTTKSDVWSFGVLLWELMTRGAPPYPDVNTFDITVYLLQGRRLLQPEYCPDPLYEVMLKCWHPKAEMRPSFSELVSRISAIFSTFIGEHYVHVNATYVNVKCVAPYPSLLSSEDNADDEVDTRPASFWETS
# Protocol: as §6, §7, §8, §13, §11
# [25] = target: T10, Met Y1230C (Homo sapiens, UniProt P08581, Y1230C); experiment: as above; assay type: biochemical
# T10 construct: purchased ProQinase GmbH (screening service)
# Protocol: as §6, §7, §8, §13, §11
# [26] = day 42, 6 weeks after cell injection, everolimus 5 mg/kg per os, PHA665752 20 mg/kg i.v., five times a week for 2 weeks
smiles,measurement,setting,value
COc1cccc2cc(-c3nc([C@H]4CC[C@H](C(=O)O)CC4)n4ncnc(N)c34)[nH]c12 [OSI-027],phospho-p70S6K,[1]; 0.5 μM,reduced phospho-p70S6K
same,Met phosphorylation,[2]; 786-O and MDA-MB-231 cells,neither PKI-587 nor OSI-027 inhibited Met phosphorylation
Cc1[nH]c(/C=C2\C(=O)Nc3ccc(S(=O)(=O)Cc4c(Cl)cccc4Cl)cc32)c(C)c1C(=O)N1CCC[C@@H]1CN1CCCC1 [PHA665752],phosphorylation of p70S6K,[1],reduced the phosphorylation of Met and p70S6K
same,phosphorylation of Met,[2],reduced the phosphorylation of Met and p70S6K
same,sensitivity to everolimus (cell density),"[3]; T47D Met Y1235D, PHA665752 1 μM + everolimus 1 μM, 72 hours, P <0.01",significantly restored sensitivity to everolimus
same,sensitivity to everolimus (cell density),"[4]; T47D wt Met, PHA665752 1 μM + everolimus 1 μM, 72 hours, P <0.01",significantly restored sensitivity to everolimus
same,sensitivity to everolimus (cell density),"[5]; T47D Met M1268T, PHA665752 1 μM + everolimus 1 μM, 72 hours, P <0.01",significantly restored sensitivity to everolimus
same,tumor volume,[6],greatly reduced
same,tumor weight,[6],greatly reduced
same,tumor growth inhibition,[7]; [26],85%
same,tumor growth inhibition,"[7]; end of the experiment, same regimen",30%
same,Median survival,[7],57 days
CN(C)C1CCN(C(=O)c2ccc(NC(=O)Nc3ccc(-c4nc(N5CCOCC5)nc(N5CCOCC5)n4)cc3)cc2)CC1 [PKI-587],phospho-p70S6K,[1]; 0.5 μM,reduced phospho-p70S6K
same,Met phosphorylation,[2]; 786-O and MDA-MB-231 cells,neither PKI-587 nor OSI-027 inhibited Met phosphorylation
CO[C@H]1C[C@@H]2CC[C@@H](C)[C@@](O)(O2)C(=O)C(=O)N2CCCC[C@H]2C(=O)O[C@H]([C@H](C)C[C@@H]2CC[C@@H](OCCO)[C@H](OC)C2)CC(=O)[C@H](C)/C=C(\C)[C@@H](O)[C@@H](OC)C(=O)[C@H](C)C[C@H](C)/C=C/C=C/C=C/1C [everolimus],amount of FKBP12 co-immunoprecipitated with Met,[8]; 786-O cells,lower
same,amount of FKBP12 co-immunoprecipitated with Met,[8]; everolimus-resistant 786-O EveR and HCT116 cells,not reduced
same,phosphorylation of p70S6K,[1],did not affect the phosphorylation of Met or p70S6K
same,p70S6K phosphorylation,"[1]; renal, breast and lung everolimus-sensitive cell lines, 0.5 μM",decreased p70S6K phosphorylation
same,phosphorylation of Met,[2],did not affect the phosphorylation of Met or p70S6K
same,Met phosphorylation,"[2]; renal, breast and lung everolimus-sensitive cell lines",inhibition of Met phosphorylation
same,IC50,[9],> 10 µM
same,IC50,[10],> 10 µM
same,IC50,[11],> 10 µM
same,IC50,[12],> 10 µM
same,IC50,[13],> 10 µM
same,IC50,[14],> 10 µM
same,IC50,[15],≥ 5 µM
same,IC50,"[3]; Homo sapiens, T47D with Met Y1235D, read-out: drug concentration causing 50% reduction of cell density",> 0.5 µM
same,IC50,"[4]; Homo sapiens, T47D with wt Met, read-out: drug concentration causing 50% reduction of cell density",> 0.5 µM
same,IC50,"[5]; Homo sapiens, T47D with Met M1268T, read-out: drug concentration causing 50% reduction of cell density",> 0.5 µM
same,IC50,[16],≤ 0.5 µM
same,IC50,[17],≤ 0.5 µM
same,IC50,[18],≤ 0.5 µM
same,IC50,[19],≥ 5 µM
same,IC50,[20],≤ 0.5 µM
same,IC50,[21],≤ 0.5 µM
same,IC50,[22],≤ 0.5 µM
same,IC50,[23],> 10 µM
same,IC50,[24],> 10 µM
same,IC50,[25],> 10 µM
same,tumor volume,[6],large tumors in the cecum and peritoneum
same,tumor growth inhibition,[7]; [26],35%
same,Median survival,[7],37.5 days
